According to ChEMBL document CHEMBL5380834, “Design, Synthesis, and Biological Evaluation of Androgen Receptor (AR) Antagonist-Heat Shock Protein 90 (Hsp90) Inhibitor Conjugates for Targeted Therapy of Castration-Resistant Prostate Cancer” (J Med Chem, 2023):
Activity calls are given as the source filed them. The calls are words filed in the database; no cut-off is given here.

Experiments:
[1] = Biodistribution in BALB/c mouse plasma xenografted with human 22Rv1 cells at 2.5 mg/kg, iv measured at 0.5 to 1 hrs; format: ADME, organism-based, CWR22R; conditions: in vivo, time 0.5-1 hrs
[2] = test system: CWR22R; assay: Antitumor activity against human 22Rv1 cells xenografted in BALB/c nude mouse assessed as reduction in tumor growth at 5 mg/kg, ip administered once every 4th day for 3 weeks; format: functional, organism-based
[3] = test system: LNCaP; assay: Downregulation of AR-regulated PSA protein level in human LNCaP cells measured for 48 hrs in presence of AR agonist, R1881 in charcoal stripped serum by Western blot analysis; format: functional, cell-based; conditions: dose 300-1000 nM
[4] = Biodistribution in BALB/c mouse liver xenografted with human 22Rv1 cells at 2.5 mg/kg, iv measured at 0.5 to 1 hrs; format: ADME, organism-based, CWR22R; conditions: in vivo, time 0.5-1 hrs
[5] = test system: CWR22R; assay: Antitumor activity against human 22Rv1 cells xenografted in BALB/c nude mouse assessed as downregulation of AR-V7 level at 2.5 mg/kg, ip administered once every 4th day for 3 weeks; format: functional, organism-based
[6] = molecular target: T1, Androgen receptor (Homo sapiens) (UniProt P10275); assay: Induction of full length AR degradation in human LNCaP cells assessed as maximum degradation at 100 nM measured after 12 hrs relative to control; format: cell-based
T1 sequence (whole entry): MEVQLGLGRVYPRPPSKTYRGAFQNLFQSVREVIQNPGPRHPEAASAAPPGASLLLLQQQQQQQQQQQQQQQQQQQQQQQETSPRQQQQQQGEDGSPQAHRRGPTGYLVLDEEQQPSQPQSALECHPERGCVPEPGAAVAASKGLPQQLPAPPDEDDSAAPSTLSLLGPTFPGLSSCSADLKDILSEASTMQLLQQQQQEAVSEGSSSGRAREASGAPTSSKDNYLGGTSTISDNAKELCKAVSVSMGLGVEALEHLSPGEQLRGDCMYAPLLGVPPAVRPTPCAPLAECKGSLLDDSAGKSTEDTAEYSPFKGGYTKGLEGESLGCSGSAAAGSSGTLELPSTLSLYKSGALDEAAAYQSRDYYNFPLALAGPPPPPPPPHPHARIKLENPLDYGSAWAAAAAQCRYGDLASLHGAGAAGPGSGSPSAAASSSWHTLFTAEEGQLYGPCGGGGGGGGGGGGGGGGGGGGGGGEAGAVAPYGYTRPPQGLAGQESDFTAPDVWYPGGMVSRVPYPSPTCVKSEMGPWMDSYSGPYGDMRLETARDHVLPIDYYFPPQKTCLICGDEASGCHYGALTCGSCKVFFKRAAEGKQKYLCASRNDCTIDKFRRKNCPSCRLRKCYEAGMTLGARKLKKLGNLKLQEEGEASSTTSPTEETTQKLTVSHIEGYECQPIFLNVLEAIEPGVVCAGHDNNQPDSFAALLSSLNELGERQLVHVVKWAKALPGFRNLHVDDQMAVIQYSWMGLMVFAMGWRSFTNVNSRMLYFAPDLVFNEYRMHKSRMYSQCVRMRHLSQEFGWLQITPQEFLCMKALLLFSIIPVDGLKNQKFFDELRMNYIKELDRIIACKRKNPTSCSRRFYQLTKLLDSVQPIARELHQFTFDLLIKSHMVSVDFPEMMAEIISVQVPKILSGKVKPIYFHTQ

[7] = molecular target: T1, Androgen receptor (Homo sapiens); assay: Induction of full length AR degradation in human RWPE-1 cells at 10 uM measured for 24 hrs by Western blot analysis; format: cell-based
[8] = Toxicity in ICR mouse assessed as kidney damage at 30 to 50 mg/kg, iv administered every second day for 14 days; format: organism-based; conditions: in vivo, 336 h, dose 30-50 mg/kg, time 14 day
[9] = test system: CWR22R; assay: Cytotoxicity against human 22Rv1 cells assessed as inhibition of cell growth incubated for 5 days in presence of AR agonist, R1881 by WST-1 assay; format: functional, cell-based; conditions: 22Rv1, 120 h
[10] = test system: LNCaP; assay: Downregulation of AR-regulated FKBP5 protein level in human LNCaP cells measured for 48 hrs in presence of AR agonist, R1881 in charcoal stripped serum by Western blot analysis; format: functional, cell-based; conditions: dose 300-1000 nM
[11] = test system: Androgen receptor (Homo sapiens), P10275 [UNDEFINED MUTATION]; assay: Induction of AR-V7 degradation in human 22Rv1 cells measured upto 24 hrs by Western blot analysis; format: cell-based; conditions: dose 1000.0 nM
[12] = Biodistribution in BALB/c mouse prostate gland xenografted with human 22Rv1 cells at 2.5 mg/kg, iv measured at 0.5 to 1 hrs; format: ADME, organism-based, CWR22R; conditions: in vivo, time 0.5-1 hrs
[13] = Toxicity in ICR mouse assessed as spleen damage at 30 to 50 mg/kg, iv administered every second day for 14 days; format: organism-based; conditions: in vivo, 336 h, dose 30-50 mg/kg, time 14 day
[14] = Biodistribution in BALB/c mouse muscle tissue xenografted with human 22Rv1 cells at 2.5 mg/kg, iv measured at 0.5 to 1 hrs; format: ADME, organism-based, CWR22R; conditions: in vivo, time 0.5-1 hrs
[15] = test system: CWR22R; assay: Antitumor activity against human 22Rv1 cells xenografted in BALB/c nude mouse assessed as downregulation of AR-FL level at 2.5 mg/kg, ip administered once every 4th day for 3 weeks; format: functional, organism-based
[16] = test system: LNCaP; assay: Cytotoxicity against AR-positive human LNCaP cells assessed as inhibition of cell growth incubated for 5 days in presence of AR agonist, R1881 in charcoal stripped serum by WST-1 assay; format: functional, cell-based; conditions: 120 h
[17] = Biodistribution in BALB/c mouse lung xenografted with human 22Rv1 cells at 2.5 mg/kg, iv measured at 0.5 to 1 hrs; format: ADME, organism-based, CWR22R; conditions: in vivo, time 0.5-1 hrs

For `CC(C)c1cc(-c2n[nH]c(=O)n2-c2ccc(CN3CCN(CC4CCN(c5ccc(C(=O)N[C@H]6CC[C@H](Oc7ccc(C#N)c(Cl)c7)CC6)nn5)CC4)CC3)cc2)c(O)cc1O`, the Drug uptake [1] was “Active”, the Activity [2] was “Active” and the Activity [3] was “Dose-Dependent Effect”. For the same molecule, the Drug uptake [4] was “Active”, the Activity [5] was “Active” and the Activity [6] was over 90%. The Activity [7] was “inactive”, the Activity [8] was “Non-Toxic” and the IC50 [9] was 26.5 nM. The Activity [10] was “Dose-Dependent Effect”, the Activity [11] was “Dose-Dependent Effect” and the Drug uptake [12] was “Active”. The Activity [13] was “Non-Toxic”, the Drug uptake [14] was “Active” and the Activity [15] was “Active”. The IC50 [16] was 171 nM and the Drug uptake [17] was “Active”.
